One experiment deals with T1, human recombinant HDAC6 (Homo sapiens, UniProt Q9UBN7).
T1 construct: purchased Calbiochem 382180
T1 sequence (Q9UBN7 1-1215): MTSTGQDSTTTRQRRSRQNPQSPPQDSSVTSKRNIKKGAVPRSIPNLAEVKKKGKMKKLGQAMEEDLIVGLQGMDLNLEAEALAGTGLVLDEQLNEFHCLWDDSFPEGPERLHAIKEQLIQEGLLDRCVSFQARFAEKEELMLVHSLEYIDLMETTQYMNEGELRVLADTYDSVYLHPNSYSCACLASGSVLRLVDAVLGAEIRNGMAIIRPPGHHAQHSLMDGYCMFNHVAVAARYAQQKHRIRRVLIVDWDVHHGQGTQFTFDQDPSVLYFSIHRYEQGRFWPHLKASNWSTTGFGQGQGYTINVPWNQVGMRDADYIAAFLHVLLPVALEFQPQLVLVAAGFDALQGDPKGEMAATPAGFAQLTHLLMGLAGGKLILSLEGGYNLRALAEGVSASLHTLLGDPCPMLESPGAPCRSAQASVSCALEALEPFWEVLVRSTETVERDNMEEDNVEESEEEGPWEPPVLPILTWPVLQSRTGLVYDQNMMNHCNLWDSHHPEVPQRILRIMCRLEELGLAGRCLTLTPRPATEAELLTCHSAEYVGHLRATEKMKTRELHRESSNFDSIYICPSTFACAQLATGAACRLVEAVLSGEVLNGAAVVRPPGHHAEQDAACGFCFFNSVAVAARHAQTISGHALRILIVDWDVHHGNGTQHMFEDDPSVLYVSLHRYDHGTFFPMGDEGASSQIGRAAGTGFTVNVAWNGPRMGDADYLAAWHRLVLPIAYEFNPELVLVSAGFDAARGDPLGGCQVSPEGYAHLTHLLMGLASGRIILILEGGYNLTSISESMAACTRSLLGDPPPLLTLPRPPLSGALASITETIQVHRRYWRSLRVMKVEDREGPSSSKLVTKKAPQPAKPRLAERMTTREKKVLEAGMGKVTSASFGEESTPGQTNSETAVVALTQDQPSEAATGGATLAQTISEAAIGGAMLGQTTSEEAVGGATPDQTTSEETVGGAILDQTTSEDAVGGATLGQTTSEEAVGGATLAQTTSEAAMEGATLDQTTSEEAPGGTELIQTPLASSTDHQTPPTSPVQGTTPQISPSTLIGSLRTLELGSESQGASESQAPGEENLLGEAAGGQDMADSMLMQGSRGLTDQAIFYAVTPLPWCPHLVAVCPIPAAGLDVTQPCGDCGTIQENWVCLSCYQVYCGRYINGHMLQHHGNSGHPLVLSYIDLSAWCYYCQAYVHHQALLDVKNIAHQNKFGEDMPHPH
As to the kind of experiment: HDAC6 enzyme activity inhibition test (HDAC Fluorometric Drug Discovery Kit). To be noted: for HDAC6 selectivity (fold): HDAC6 over HDAC1; for IC50: human recombinant HDAC6, same protocol as HDAC1. The experiment is classed as biochemical. Summed up: (§1)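 Recombinant human HDAC1 or HDAC6 (0.3 μg) reacted with 10 μM Fluor de Lys SIRT1 substrate and 5-fold diluted compound for 60 min at 30 °C. Developer II added 30 min; fluorescence read at Ex 360/Em 460 and IC50 calculated.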

For the next experiment, the target named is T2, human recombinant HDAC1 (Homo sapiens, UniProt Q13547).
T2 construct: purchased Enzo Life Science BML-SE456
T2 sequence (Q13547 whole entry): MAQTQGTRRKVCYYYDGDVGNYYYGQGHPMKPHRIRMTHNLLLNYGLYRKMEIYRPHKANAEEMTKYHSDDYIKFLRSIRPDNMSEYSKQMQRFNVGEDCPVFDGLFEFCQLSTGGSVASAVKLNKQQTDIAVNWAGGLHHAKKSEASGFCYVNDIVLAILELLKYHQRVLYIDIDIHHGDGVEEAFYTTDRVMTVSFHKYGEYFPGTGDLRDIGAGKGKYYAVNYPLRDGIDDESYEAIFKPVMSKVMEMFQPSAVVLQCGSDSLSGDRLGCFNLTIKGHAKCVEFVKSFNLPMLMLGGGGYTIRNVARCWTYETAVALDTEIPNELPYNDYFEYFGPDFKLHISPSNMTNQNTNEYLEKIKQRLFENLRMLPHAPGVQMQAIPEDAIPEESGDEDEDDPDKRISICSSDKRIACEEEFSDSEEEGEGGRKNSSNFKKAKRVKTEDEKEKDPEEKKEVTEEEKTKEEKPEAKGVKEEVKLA
As to the kind of experiment: HDAC1 enzyme activity inhibition test (HDAC Fluorometric Drug Discovery Kit). The experiment is classed as biochemical. As to conditions: 30° C., 60 minutes, 10 μM substrate. Summed up: as §1

SMILES strings stand for the structures.

On to `CN1CCN(c2cccc(-c3nn(Cc4ccc(-c5nnc(C(F)F)o5)cn4)c(=S)o3)c2)CC1` [Compound 75, 3-[[5-[5-(difluoromethyl)-1,3,4-oxadiazol-2-yl]-2-pyridyl]methyl]-5-[3-(4-methylpiperazin-1-yl)phenyl]-1,3,4-oxadiazol-2-thione], for which the “HDAC6 selectivity (fold)” value on human recombinant HDAC6 was 1149 fold. The results for the IC50 on human recombinant HDAC6 and on human recombinant HDAC1 were 43.5 nM and more than 50000 nM, respectively.

Turning to `CC(C)N1CCN(c2cccc(-c3nn(Cc4ccc(-c5nnc(C(F)F)o5)cn4)c(=S)o3)c2)CC1` [Compound 76, 3-[[5-[5-(difluoromethyl)-1,3,4-oxadiazol-2-yl]-2-pyridyl]methyl]-5-[3-(4-isopropylpiperazin-1-yl)phenyl]-1,3,4-oxadiazol-2-thione], on human recombinant HDAC6, the “HDAC6 selectivity (fold)” value came out at 945 fold and the concentration for half-maximal inhibition (IC50) came to 52.9 nM. For the same molecule, the IC50 at human recombinant HDAC1 was more than 50000 nM.

With `CC(C)N1CCN(Cc2ccc(-c3nn(Cc4ccc(-c5nnc(C(F)F)o5)cn4)c(=S)o3)cc2)CC1` [Compound 77, 3-[[5-[5-(difluoromethyl)-1,3,4-oxadiazol-2-yl]-2-pyridyl]methyl]-5-[4-[(4-isopropylpiperazin-1-yl)methyl]phenyl]-1,3,4-oxadiazol-2-thione], the “HDAC6 selectivity (fold)” value on human recombinant HDAC6 amounted to 669 fold. The IC50 on human recombinant HDAC6 is 74.7 nM; at human recombinant HDAC1 it was more than 50000 nM.

Take `FC(F)c1nnc(-c2ccc(Cn3nc(-c4ccc(CN5CCN(C6CCC6)CC5)cc4)oc3=S)nc2)o1` [Compound 78, 5-[4-[(4-cyclobutylpiperazin-1-yl)methyl]phenyl]-3-[[5-[5-(difluoromethyl)-1,3,4-oxadiazol-2-yl]-2-pyridyl]methyl]-1,3,4-oxadiazol-2-thione]: on human recombinant HDAC6, the “HDAC6 selectivity (fold)” value is on record as 498 fold and the IC50 was determined as 100 nM. On human recombinant HDAC1, the IC50 was more than 50000 nM.

As for `FC(F)c1nnc(-c2ccc(Cn3nc(-c4ccc(CN5CCN(C6CCCC6)CC5)cc4)oc3=S)nc2)o1` [Compound 79, 5-[4-[(4-cyclopentylpiperazin-1-yl)methyl]phenyl]-3-[[5-[5-(difluoromethyl)-1,3,4-oxadiazol-2-yl]-2-pyridyl]methyl]-1,3,4-oxadiazol-2-thione], at human recombinant HDAC6, the “HDAC6 selectivity (fold)” value came to 461 fold. Moreover, the IC50 is 108 nM on human recombinant HDAC6 and more than 50000 nM on human recombinant HDAC1.

For `CC(C)N1CCC(c2cccc(-c3nn(Cc4ccc(-c5nnc(C(F)F)o5)cn4)c(=S)o3)c2F)CC1` [Compound 80, 3-[[5-[5-(difluoromethyl)-1,3,4-oxadiazol-2-yl]-2-pyridyl]methyl]-5-[2-fluoro-3-(1-isopropyl-4-piperidyl)phenyl]-1,3,4-oxadiazol-2-thione], at human recombinant HDAC6, the “HDAC6 selectivity (fold)” value came to 649 fold and the IC50 was determined as 77.1 nM. Further, the IC50 on human recombinant HDAC1 was more than 50000 nM.

Turning to `Fc1c(-c2nn(Cc3ccc(-c4nnc(C(F)F)o4)cn3)c(=S)o2)cccc1C1CCN(C2CCC2)CC1` [Compound 81, 5-[3-(1-cyclobutyl-4-piperidyl)-2-fluoro-phenyl]-3-[[5-[5-(difluoromethyl)-1,3,4-oxadiazol-2-yl]-2-pyridyl]methyl]-1,3,4-oxadiazol-2-thione], the “HDAC6 selectivity (fold)” value at human recombinant HDAC6 was determined as 576 fold. In addition, the IC50 at human recombinant HDAC6 is 86.8 nM; at human recombinant HDAC1, more than 50000 nM.

`Fc1c(-c2nn(Cc3ccc(-c4nnc(C(F)F)o4)cn3)c(=S)o2)cccc1C1CCN(C2CCCC2)CC1` [Compound 82, 5-[3-(1-cyclopentyl-4-piperidyl)-2-fluoro-phenyl]-3-[[5-[5-(difluoromethyl)-1,3,4-oxadiazol-2-yl]-2-pyridyl]methyl]-1,3,4-oxadiazol-2-thione]: at human recombinant HDAC6, the “HDAC6 selectivity (fold)” value is on record as 453 fold. Also, the IC50 was 110 nM on human recombinant HDAC6 and more than 50000 nM on human recombinant HDAC1.

For `CC(C)N1CCN(Cc2ccc(-c3nn(Cc4ccc(-c5nnc(C(F)F)o5)cn4)c(=O)o3)cc2)CC1` [Compound 83, 3-[[5-[5-(difluoromethyl)-1,3,4-oxadiazol-2-yl]-2-pyridyl]methyl]-5-[4-[(4-isopropylpiperazin-1-yl)methyl]phenyl]-1,3,4-oxadiazol-2-one], at human recombinant HDAC6, the “HDAC6 selectivity (fold)” value was determined as 554 fold and the IC50 came out at 90.3 nM. The IC50 on human recombinant HDAC1 was more than 50000 nM.

With `CN(C)Cc1cccc(-c2nn(Cc3ccc(-c4nnc(C(F)F)o4)cn3)c(=S)o2)c1` [Compound 84, 3-((5-(5-(difluoromethyl)-1,3,4-oxadiazol-2-yl)pyridin-2-yl)methyl)-5-(3-((dimethylamino)methyl)phenyl)-1,3,4-oxadiazol-2(3H)-thione], the “HDAC6 selectivity (fold)” value at human recombinant HDAC6 was found to be 497 fold. Further, the IC50 at human recombinant HDAC6 was 101 nM; on human recombinant HDAC1 it was more than 50000 nM.

Take `CNCc1cccc(-c2nn(Cc3ccc(-c4nnc(C(F)F)o4)cn3)c(=S)o2)c1` [Compound 85, 3-[[5-[5-(difluoromethyl)-1,3,4-oxadiazol-2-yl]-2-pyridyl]methyl]-5-[3-(methylaminomethyl)phenyl]-1,3,4-oxadiazol-2-thione]: on human recombinant HDAC6, the “HDAC6 selectivity (fold)” value came out at 447 fold and the IC50 is 112 nM. On human recombinant HDAC1, the IC50 is more than 50000 nM.

Turning to `FC(F)c1nnc(-c2ccc(Cn3nc(-c4cccc(CN5CCCC5)c4)oc3=S)nc2)o1` [Compound 86, 3-[[5-[5-(difluoromethyl)-1,3,4-oxadiazol-2-yl]-2-pyridyl]methyl]-5-[3-(pyrrolidin-1-ylmethyl)phenyl]-1,3,4-oxadiazol-2-thione], on human recombinant HDAC6, the “HDAC6 selectivity (fold)” value was found to be 760 fold. Besides, the IC50 on human recombinant HDAC6 is 65.8 nM; on human recombinant HDAC1, more than 50000 nM.

With `FC(F)c1nnc(-c2ccc(Cn3nc(-c4cccc(CN5CCCCC5)c4)oc3=S)nc2)o1` [Compound 87, 3-[[5-[5-(difluoromethyl)-1,3,4-oxadiazol-2-yl]-2-pyridyl]methyl]-5-[3-(1-piperidylmethyl)phenyl]-1,3,4-oxadiazol-2-thione], at human recombinant HDAC6, the “HDAC6 selectivity (fold)” value worked out at 556 fold and the IC50 was found to be 89.9 nM. In addition, the IC50 on human recombinant HDAC1 was more than 50000 nM.

With `CC1CCN(Cc2cccc(-c3nn(Cc4ccc(-c5nnc(C(F)F)o5)cn4)c(=S)o3)c2)CC1` [Compound 88, 3-[[5-[5-(difluoromethyl)-1,3,4-oxadiazol-2-yl]-2-pyridyl]methyl]-5-[3-[(4-methyl-1-piperidyl)methyl]phenyl]-1,3,4-oxadiazol-2-thione], the “HDAC6 selectivity (fold)” value at human recombinant HDAC6 worked out at 449 fold. Further, the figures for the concentration for half-maximal inhibition (IC50) at human recombinant HDAC6 and at human recombinant HDAC1 were 111 nM and more than 50000 nM, respectively.

For `FC(F)c1nnc(-c2ccc(Cn3nc(-c4cccc(CN5CC[C@@H](F)C5)c4)oc3=S)nc2)o1` [Compound 89, 3-[[5-[5-(difluoromethyl)-1,3,4-oxadiazol-2-yl]-2-pyridyl]methyl]-5-[3-[[(3R)-3-fluoropyrrolidin-1-yl]methyl]phenyl]-1,3,4-oxadiazol-2-thione], on human recombinant HDAC6, the “HDAC6 selectivity (fold)” value is 1027 fold and the IC50 stood at 48.7 nM. Moreover, the IC50 at human recombinant HDAC1 was more than 50000 nM.

As to `FC(F)c1nnc(-c2ccc(Cn3nc(-c4cccc(CN5CC[C@H](F)C5)c4)oc3=S)nc2)o1` [Compound 90, 3-[[5-[5-(difluoromethyl)-1,3,4-oxadiazol-2-yl]-2-pyridyl]methyl]-5-[3-[[(3S)-3-fluoropyrrolidin-1-yl]methyl]phenyl]-1,3,4-oxadiazol-2-thione], the “HDAC6 selectivity (fold)” value on human recombinant HDAC6 turned out to be 835 fold. The figures for the IC50 on human recombinant HDAC6 and on human recombinant HDAC1 were 59.9 nM and more than 50000 nM, respectively.

For `CN(C)Cc1ccc(-c2nn(Cc3ccc(-c4nnc(C(F)F)o4)cn3)c(=S)o2)cc1` [Compound 91, 3-[[5-[5-(difluoromethyl)-1,3,4-oxadiazol-2-yl]-2-pyridyl]methyl]-5-[4-[(dimethylamino)methyl]phenyl]-1,3,4-oxadiazol-2-thione], at human recombinant HDAC6, the “HDAC6 selectivity (fold)” value stood at 1832 fold. Moreover, the figures for the IC50 at human recombinant HDAC6 and on human recombinant HDAC1 were 27.3 nM and more than 50000 nM, respectively.

As for `CNCc1ccc(-c2nn(Cc3ccc(-c4nnc(C(F)F)o4)cn3)c(=S)o2)cc1` [Compound 92, 3-[[5-[5-(difluoromethyl)-1,3,4-oxadiazol-2-yl]-2-pyridyl]methyl]-5-[4-(methylaminomethyl)phenyl]-1,3,4-oxadiazol-2-thione], on human recombinant HDAC6, the “HDAC6 selectivity (fold)” value is 3185 fold and the IC50 was determined as 15.7 nM. The IC50 on human recombinant HDAC1 is more than 50000 nM.

For orientation: IC50 means the point on the concentration scale where inhibition reaches its midpoint.
